Measured values reported in patent US20230212549A1, “COMPOUNDS COMPRISING A […] LIGAND AND USE THEREOF” (priority 2021, published 2023).
Numbered stars: 1 amine (or outer) side, 2 acyl side, 3 side chain; on linkers, the order of the positions; unused ones are H or OH. Bridge positions count the residues as written; N and C are the ends. Square brackets hold non-standard residues; d marks the D form. Peptide text beside a SMILES is read from it. mXylylene = c1cc(C[*:1])cc(C[*:2])c1; NMeF = CN[C@@H](Cc1ccccc1)C(=O)O

Columns and labels:
[1] = target: T1, FAP-expressing human WI-38 fibroblasts (Homo sapiens, UniProt Q12884); experiment: Competitive FACS binding assay; settings: for pIC50 Category (FACS): competition with 3 nM Cy5-labeled compound, 4° C., 1 hour, WI-38 fibroblasts
T1 construct: FAP-expressing human WI-38 fibroblasts (ECACC) were cultured in EMEM; host or cells: WI-38 human fibroblasts
T1 sequence (Q12884 whole entry): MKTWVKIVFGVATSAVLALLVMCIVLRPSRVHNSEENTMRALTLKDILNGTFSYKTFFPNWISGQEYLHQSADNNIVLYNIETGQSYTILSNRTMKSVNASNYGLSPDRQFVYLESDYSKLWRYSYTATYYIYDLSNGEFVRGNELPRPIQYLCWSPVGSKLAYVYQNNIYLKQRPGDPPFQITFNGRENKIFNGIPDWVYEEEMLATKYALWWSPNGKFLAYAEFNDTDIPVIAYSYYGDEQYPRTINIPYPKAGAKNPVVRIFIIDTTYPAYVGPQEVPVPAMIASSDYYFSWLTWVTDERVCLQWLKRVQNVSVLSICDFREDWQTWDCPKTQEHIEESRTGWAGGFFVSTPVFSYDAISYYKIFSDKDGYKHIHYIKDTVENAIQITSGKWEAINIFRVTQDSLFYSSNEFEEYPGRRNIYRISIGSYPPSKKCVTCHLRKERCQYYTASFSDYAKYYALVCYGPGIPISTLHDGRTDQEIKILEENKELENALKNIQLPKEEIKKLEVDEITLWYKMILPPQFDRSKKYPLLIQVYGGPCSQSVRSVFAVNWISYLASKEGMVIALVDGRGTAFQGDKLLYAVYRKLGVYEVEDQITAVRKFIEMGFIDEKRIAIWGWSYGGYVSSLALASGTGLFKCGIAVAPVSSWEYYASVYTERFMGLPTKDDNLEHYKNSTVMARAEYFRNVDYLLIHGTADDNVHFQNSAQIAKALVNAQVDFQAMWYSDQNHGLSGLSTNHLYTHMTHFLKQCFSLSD
Experimental: Cells were analyzed in an Attune NxT flow cytometer. […] […].
Cells were analyzed in an Attune NxT flow cytometer. […]

Human recombinant FAP [2] = target: T2, Human recombinant FAP (Homo sapiens, UniProt Q12884); experiment: Surface plasmon resonance (Biacore) assay; format: binding; settings: for pKD Category: Biacore, SCK mode, 25° C.
T2 sequence (Q12884 whole entry): as above

[3] = Radiochemical purity by HPLC of ^99mTc-labeled compounds; format: physicochemical; settings: 99Tc-labeled compounds
Experimental: 100-500 MBq of ^99mTcO4 (in saline) were mixed with 11 μl of 0.5 M phosphate buffer pH 11.5-12.0 and 1.1 μl of 0.1 M trisodium citrate per 100 μl radionuclide solution. […] The mixture was incubated for 30 min at 25-50′° C. At the end of the incubation time, the mixture was neutralized with 3.0 μl 1 M HCl per 10 μl phosphate buffer and TWEEN-20 was added at a final concentration of 0.100.

HEK-FAP tumor = settings: for uptake in healthy tissues (biodistribution): ^99mTc-labelled, 1-6 h post injection, compared to 3BP-4219 and 3BP-4221; for uptake BPS 1 h / uptake BPS 3 h / uptake BPS 6 h / uptake Tumor 1 h / uptake Tumor 3 h / uptake Tumor 6 h / uptake Kidneys 1 h / uptake Kidneys 3 h / uptake Kidneys 6 h: ^99mTc-labeled, SPECT/CT; for uptake BPS 1 h / uptake BPS 3 h / uptake BPS 6 h: BPS (blood pool surrogate); for uptake BPS 1 h / uptake Tumor 1 h / uptake Kidneys 1 h: 1 h post tracer injection; for uptake BPS 3 h / uptake Tumor 3 h / uptake Kidneys 3 h: 3 h post tracer injection; for uptake BPS 6 h / uptake Tumor 6 h / uptake Kidneys 6 h: 6 h post tracer injection; for uptake Tumor 1 h / uptake Tumor 3 h / uptake Tumor 6 h: HEK-FAP tumor
in vivo = settings: swiss nude, mouse, iv
Human recombinant FAP [4] = target: T2, Human recombinant FAP; experiment: FRET-based FAP protease activity assay; format: biochemical; set-up: purchased R&D systems 3715-SE; settings: for pIC50 Category (activity): FRET-peptide substrate
[5] = Plasma stability assay, mouse plasma; format: in vitro ADME; settings: mouse, plasma; 4 h incubation, 37° C.; read-out: % intact compound remaining after incubation, Mouse plasma
[6] = pIC50 Category (activity), Recombinant human FAP

| Compound | IC50 [1] [nM] | Kd (Human recombinant FAP [2]) [nM] | HPLC Area % at end of synthesis [3] [%] | uptake in healthy tissues (biodistribution) (HEK-FAP tumor) | tissue uptake at 1 h (in vivo; blood pool surrogate (BPS)) [%ID/g] | tissue uptake at 3 h (in vivo; blood pool surrogate (BPS)) [%ID/g] | tissue uptake at 6 h (in vivo; blood pool surrogate (BPS)) [%ID/g] | tissue uptake at 1 h (in vivo; kidneys) [%ID/g] | tissue uptake at 3 h (in vivo; kidneys) [%ID/g] | tissue uptake at 6 h (in vivo; kidneys) [%ID/g] | tissue uptake at 1 h (in vivo; tumor) [%ID/g] | tissue uptake at 3 h (in vivo; tumor) [%ID/g] | tissue uptake at 6 h (in vivo; tumor) [%ID/g] | IC50 (Human recombinant FAP [4]; [6]) [nM] | pIC50 Category (FACS) [1] | pKD Category (Human recombinant FAP [2]) | HPLC Area % appr. 4 h post end of synthesis ([3]; (5.5 h)) [%] | uptake BPS 1 h (HEK-FAP tumor) [% ID/g] | uptake BPS 3 h (HEK-FAP tumor) [% ID/g] | uptake BPS 6 h (HEK-FAP tumor) [% ID/g] | further results |
| --- | --- | --- | --- | --- | --- | --- | --- | --- | --- | --- | --- | --- | --- | --- | --- | --- | --- | --- | --- | --- | --- |
| CCCC[C@H](NC(=O)CCC(=O)NCCCOCCOCCOCCCNC(=O)CN1CCN(C(=O)C(CNCCN)CNCCN)CC1)C(=O)N[C@H]1CSCc2cncc(c2)CSC[C@@H](C(=O)NCCC(=O)O)NC(=O)[C@H](Cc2ccccc2)NC(=O)[C@H](CCC(N)=O)NC(=O)[C@H]([C@@H](C)O)NC(=O)[C@@H]2CCCN2C(=O)[C@@H]2CCCN2C1=O [3BP-4961, N4Ac-PPAc-Ttds-Nle-[Cys(3Lut)-Pro-Pro-Thr-Gln-Phe-Cys]-Bal-OH] | < 10 | < 10 | 98.0 | decreased uptake in healthy tissues over time | 0.47 | 0.31 | 0.11 | 2.36 | 1.12 | 0.77 | 10.5 | 11.4 | 12.3 | < 10 | – | – | – | – | – | – | – |
| CSCC[C@H](NC(C)=O)C(=O)N[C@H]1CSCc2cccc(c2)CSC[C@@H](C(=O)N[C@@H](CC(=O)O)C(=O)N[C@@H](Cc2c[nH]cn2)C(=O)N(C)[C@@H](Cc2ccccc2)C(=O)N[C@@H](CCCNC(=N)N)C(=O)N[C@@H](CC(=O)O)C(N)=O)NC(=O)[C@H](Cc2ccccc2)NC(=O)[C@H](CCC(=O)O)NC(=O)[C@H]([C@@H](C)O)NC(=O)[C@@H]2CCCN2C(=O)[C@@H]2CCCN2C1=O [3BP-3188, Ac-Met-[Cys(3MeBn)-Pro-Pro-Thr-Glu-Phe-Cys]-Asp-His-Nmf-Arg-Asp-NH2] (Ac-MCPPTEFCDH[NMeF]RD-NH2; linker 2-8 via mXylylene) | < 10 | – | – | – | – | – | – | – | – | – | – | – | – | – | – | – | – | – | – | – | remaining at 4 h, 9.8 µM [5]: 97%; IC50 (Human recombinant FAP [4]; pIC50 Category (Activity), FRET-based FAP protease activity assay, recombinant human FAP, 37° C.): < 10 nM |
| N4Ac-PEG6-Nle-[Cys-(3MeBn)-Pro-Pro-Thr-Glu-Phe-Cys]-OH [3BP-4221] | – | – | 99.0 | – | – | – | – | – | – | – | – | – | – | – | B (category B for pIC50 values between 7.1 and 8.0) | A (Category A stands for pKD values >8.0) | 97.4 | 0.54 | 0.27 | 0.16 | uptake Tumor 1 h (HEK-FAP tumor): 8.51 % ID/g; uptake Tumor 3 h (HEK-FAP tumor): 8.32 % ID/g; uptake Tumor 6 h (HEK-FAP tumor): 7.97 % ID/g; uptake Kidneys 1 h (HEK-FAP tumor): 4.74 % ID/g; uptake Kidneys 3 h (HEK-FAP tumor): 3.73 % ID/g; uptake Kidneys 6 h (HEK-FAP tumor): 2.56 % ID/g; pIC50 Category (activity) (Human recombinant FAP [4]; 37° C.): B (category B for pIC50 values between 7.1 and 8.0) |
| CCCC[C@H](NC(=O)CCC(=O)NCCCOCCOCCOCCCNC(=O)CN1CCN(C(=O)C(CNCCN)CNCCN)CC1)C(=O)N[C@H]1CSCc2cccc(c2)CSCC(C(=O)O)NC(=O)[C@H](Cc2ccccc2)NC(=O)[C@H](CCC(N)=O)NC(=O)[C@H]([C@@H](C)O)NC(=O)[C@@H]2CCCN2C(=O)[C@@H]2CCCN2C1=O (stereo partly drawn) [3BP-4541, N4Ac-PPAc-Ttds-Nle-[Cys(3MeBn)-Pro-Pro-Thr-Gln-Phe-Cys]-OH] | 10 to 79.4 | 10 to 79.4 | 95.8 | decreased uptake in healthy tissues over time | 0.48 | 0.2 | 0.06 | 4.02 | 2.41 | 1.01 | 8.81 | 9.76 | 7.48 | 10 to 79.4 | – | – | – | – | – | – | HPLC Area % appr. 4 h post end of synthesis [3]: 89.7% |
| N4Ac-Ttds-Nle-[Cys-(3MeBn)-Pro-Pro-Thr-Gln-Phe-Cys]-OH [3BP-4219] | – | – | 94.8 | – | – | – | – | – | – | – | – | – | – | – | B (category B for pIC50 values between 7.1 and 8.0) | A (Category A stands for pKD values >8.0) | 93.8 | 0.21 | 0.09 | 0.07 | uptake Tumor 1 h (HEK-FAP tumor): 6.80 % ID/g; uptake Tumor 3 h (HEK-FAP tumor): 7.62 % ID/g; uptake Tumor 6 h (HEK-FAP tumor): 4.52 % ID/g; uptake Kidneys 1 h (HEK-FAP tumor): 1.85 % ID/g; uptake Kidneys 3 h (HEK-FAP tumor): 1.84 % ID/g; uptake Kidneys 6 h (HEK-FAP tumor): 0.55 % ID/g; pIC50 Category (activity) (Human recombinant FAP [4]; 37° C.): A (pIC50 category A stands for pIC50 values >8.0) |
